Assay: sGC-HEK-cGMP Assay: Human embryonic kidney cells (HEK293), endogenously expressing soluble guanylate cyclase (sGC), were used to evaluate the activity of test compounds. Compounds stimulating the sGC enzyme should cause an increase in the intracellular concentration of cGMP. HEK 293 cells were seeded in Dulbecco's Modification of Eagle's Medium supplemented with fetal bovine serum (10% final) and penicillin (100 U/mL)/streptomycin (100 μg/mL) in a 50 μL volume at a density of 1.5×10^4 cells/well in a poly-D-lysine coated 384 well flat bottom plate. Cells were incubated overnight at 37° C. in a humidified chamber with 5% CO2. Medium was aspirated and cells were washed with 1× Hank's Buffered Saline Salt Solution (50 μL). Cells were then incubated for 15 minutes at 37° C. with 50 μL of a 0.5 mM 3-isobutyl-1-methylxanthine (IBMX) solution. Test article and Diethylenetriamine NONOate (DETA-NONOate) solutions (x μM concentration for test article solution and 10 μM concentration for DETA-NONOate solution; wherein x is one of the following concentrations: 0.029 nM to 30000 nM). were then added to the assay mixture and the resulting mixture incubated at 37° C. for 20 minutes. After the 20 minute incubation, the assay mixture was aspirated and 10% acetic acid containing 150 ng/mL+3-cGMP (internal standard for LCMS) (50 μL) was added to the cells. The plate was incubated at 4° C. for 30 minutes in the acetic acid solution to stop the reaction and lyse the cells. The plates were then centrifuged at 1,000 g for 3 minutes at 4° C. and the supernatant transferred to a clean reaction plate for LCMS analysis.cGMP concentrations were determined from each sample using the LCMS conditions below (Table 5) and calculated standard curve. The standard curve was prepared in 10% acetic acid with 150 ng/mL+3cGMP (isotopically labelled cGMP with a weight 3 units higher than wild type) with the following final concentrations of cGMP in ng/mL: 1, 5, 10, 50, 100, 250, 500, 1000, 2000.
Assay type: cell-based

Compound | EC50
O=COC1CNCCN1c1nc(-c2cc(-c3ccon3)n(Cc3ccccc3F)n2)ncc1F (centres undefined) | > 1 µM
O=COC1c2[nH]cnc2CCN1c1nc(-c2cc(-c3ccon3)n(Cc3ccccc3F)n2)ncc1F (centres undefined) | > 1 µM
O=CO[C@H](Cc1ccc(O)cc1)Nc1nc(-c2cc(-c3ccon3)n(Cc3ccccc3F)n2)ncc1F | > 1 µM
COC(=O)N1CCN(c2nc(-c3cc(-c4ccon4)n(Cc4ccccc4F)n3)ncc2F)C(OC=O)C1 (centres undefined) | > 1 µM
COc1ccc2c(c1)CCN(c1nc(-c3cc(-c4ccon4)n(Cc4ccccc4F)n3)ncc1F)C2OC=O (centres undefined) | < 0.1 µM
Fc1ccccc1Cn1nc(-c2ncc(F)c(N3CCCC4CC43)n2)cc1-c1ccon1 (centres undefined) | in the range around 0.55 µM
C[C@H]1CCCN(c2nc(-c3cc(-c4ccon4)n(Cc4cccc(F)c4F)n3)ncc2F)[C@H]1OC=O | < 0.1 µM
O=COC1c2ccc(O)cc2CCN1c1nc(-c2cc(-c3ccon3)n(Cc3ccccc3F)n2)ncc1F (centres undefined) | > 1 µM
CC(=O)c1cc(-c2ncc(F)c(N3CCC[C@H](C)[C@@H]3OC=O)n2)nn1Cc1ccccc1F | in the range around 0.55 µM

— ChEMBL document CHEMBL5726175, “sGC stimulators” (2019)
